Patent US6075044A, “Heterocyclic derivatives as inhibitors of purine salvage phosphoribosyltransferases” (The Regents of the University of California, priority 1998, dated 2000)
Like-named read-outs stand apart in the source and are kept apart here.

Columns and labels:
Assay type in all cases: biochemical
HGXPRTase from T. foetus = target: T1, HGXPRTase from T. foetus (Tritrichomonas foetus, UniProt P51900); assay: Enzyme assay, [14C]-guanine to GMP conversion, T. foetus HGXPRTase; conditions: read-out: IC50 TFH (HGXPRTase from T. foetus)
T1 construct: made in house; host or cells: Escherichia coli
T1 sequence (P51900 1-183): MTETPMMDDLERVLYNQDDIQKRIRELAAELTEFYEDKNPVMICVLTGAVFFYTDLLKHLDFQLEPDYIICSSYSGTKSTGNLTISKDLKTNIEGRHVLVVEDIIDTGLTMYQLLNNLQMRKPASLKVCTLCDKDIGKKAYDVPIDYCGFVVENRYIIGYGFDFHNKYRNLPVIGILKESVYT
Protocol: (§1) Protocol For Testing Compounds of Formula I Against Tritrichomonas foetus HGXPRTase, Giardia lamblia GPRTase and Human HGPRTase
(§2) The enzyme assay mixture, in a final volume of 20 μl, consisted of the following:
(§3) Bis-Tris-HCl, pH 6.8 0.3 M
(§4) 5-Phospho-1-ribosylpyrophosphate 0.1 mM
(§5) [^14 C]-guanine (46 mCi/mmole) 22 μM
(§6) Thus, all the assay mixtures contain 10% DMSO.
(§7) The recombinant enzyme, purified to homogeneity in the native form, was diluted in a buffer solution of 50 mM Bis-Tris-HCl, pH 6.8, 6 mM MgCl2, and 1 mM dithiothreitol to a final concentration of 34 μg enzyme protein per ml. Two and one half of the diluted enzyme solution was added to the 20 μl reaction mixture, and maintained at 37° C., to start the enzyme-catalyzed reaction. The reaction was allowed to proceed at 37° C. for exactly 5 min, and then stopped by adding 23 μl of 1 mM guanine and 1 mM GMP to the reaction mixture.
(§8) Twenty μl of the final mixture was spotted on a polyethyleneimine-cellulose thin layer plate and chromatographed with 5 mM ammonium acetate pH 5.0. The unreacted [^14 C]-guanine migrated at the forefront of the chromatography with an Rf value of 0.62, whereas the product [^14 C]-GMP remained at the origin due to the negative charge of the molecule at pH 5.0. The spots of guanine and GMP were cut out from the plate, and the radioactivity in each spot measured with a Beckman LS-3801 scintillation counter. The radioactivities associated with the GMP and diminished from the guanine sample were used to calculate the amount of substrate converted to product within a unit time period.
(§9) Protocol For Testing Compounds of Formula II Against Tritrichomonas foetus HGXPRTase Giardia lamblia GPRTase and Human HGPRTase
as §7, with “half μl” for “half”

GPRTase from G. lamblia = target: T2, GPRTase from G. lamblia (Giardia duodenalis, UniProt Q24973); assay: Enzyme assay, [14C]-guanine to GMP conversion, G. lamblia GPRTase; conditions: recombinant enzyme, 10% DMSO, 37° C., 5 min, pH 6.8, read-out: IC50 GLG (GPRTase from G. lamblia)
T2 sequence (Q24973 1-230): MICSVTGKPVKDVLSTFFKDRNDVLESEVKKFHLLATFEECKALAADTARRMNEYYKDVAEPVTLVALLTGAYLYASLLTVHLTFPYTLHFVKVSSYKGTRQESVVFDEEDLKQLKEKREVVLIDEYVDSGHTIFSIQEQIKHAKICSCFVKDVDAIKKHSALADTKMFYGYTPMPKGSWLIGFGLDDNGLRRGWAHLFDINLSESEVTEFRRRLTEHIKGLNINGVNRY
Protocol: as §1, §2, §3, §4, §5, §6, §7, §8, §9
as §7, with “half μl” for “half”

Human HGPRTase = target: T3, Human HGPRTase (Homo sapiens, UniProt P00492); assay: Enzyme assay, [14C]-guanine to GMP conversion, human HGPRTase; conditions: recombinant enzyme, 10% DMSO, 37° C., 5 min, pH 6.8, read-out: IC50 HH (Human HGPRTase)
T3 sequence (P00492 1-218): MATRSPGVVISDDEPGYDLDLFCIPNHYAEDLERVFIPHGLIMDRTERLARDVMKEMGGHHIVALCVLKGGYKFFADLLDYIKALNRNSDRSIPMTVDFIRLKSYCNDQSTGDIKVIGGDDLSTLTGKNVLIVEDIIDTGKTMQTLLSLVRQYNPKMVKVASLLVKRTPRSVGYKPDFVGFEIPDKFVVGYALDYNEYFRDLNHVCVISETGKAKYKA
Protocol: as §1, §2, §3, §4, §5, §6, §7, §8, §9
as §7, with “half μl” for “half”

[1] = Table 2, compounds of Formula I, recombinant enzyme, 10% DMSO, 37° C., 5 min, pH 6.8
[2] = Table 2, compounds of Formula I
[3] = Table 4, compounds of Formula II, recombinant enzyme, 10% DMSO, 37° C., 5 min, pH 6.8
[4] = Table 4, compounds of Formula II

| Structure (SMILES) | IC50 (HGXPRTase from T. foetus; [1]) | IC50 (GPRTase from G. lamblia; [2]) | IC50 (Human HGPRTase; [2]) | IC50 (HGXPRTase from T. foetus; [3]) | IC50 (GPRTase from G. lamblia; [4]) | IC50 (Human HGPRTase; [4]) | IC50 (HGXPRTase from T. foetus) |
| --- | --- | --- | --- | --- | --- | --- | --- |
| O=C1Nc2ccccc2C1=NNc1ccc([N+](=O)[O-])cc1 [(I)1, 3-(4-nitrophenylhydrazono)-1,3-dihydroindol-2-one] | 240 µM | > 1000 µM | 200 µM | – | – | – | – |
| O=C1Nc2ccccc2C1=NN=Cc1ccc([N+](=O)[O-])cc1 [(I)2, 3-(4-nitrophenylidenehydrazono)-1,3-dihydroindol-2-one] | 50 µM | > 1000 µM | > 1000 µM | – | – | – | – |
| O=C1Nc2ccccc2C1=NN=Cc1ccc(Cl)cc1 [(I)3, 3-(4-chlorophenylidenehydrazono)-1,3-dihydroindol-2-one] | 170 µM | > 1000 µM | > 1000 µM | – | – | – | – |
| O=C1Nc2ccccc2C1=NN=Cc1cc(Cl)cc(Cl)c1O [(I)4, 3-(2-hydroxy-3,5-dichlorophenylidenehydrazono)-1,3-dihydroindol-2-one] | > 1000 µM | > 1000 µM | – | – | – | – | – |
| O=C1Nc2ccccc2C1=NN=Cc1cc(Br)ccc1O [(I)5, 3-(2-hydroxy-5-bromophenylidenehydrazono)-1,3-dihydroindol-2-one] | 460 µM | > 1000 µM | > 1000 µM | – | – | – | – |
| O=C1Nc2ccc(Br)cc2C1=NN=Cc1ccc(Cl)c(Cl)c1 [(I)6, 3-(3,4-dichlorophenylidenehydrazono)-5-bromo-1,3-dihydroindol-2-one] | 300 µM | > 1000 µM | > 1000 µM | – | – | – | – |
| COc1ccc(CCNC=C2C(=O)Nc3ccccc32)cc1 [(I)7] | 200 µM | > 1000 µM | > 1000 µM | – | – | – | – |
| O=C(COc1ccc([N+](=O)[O-])cc1)NN=C1C(=O)Nc2ccccc21 [(I)8] | 180 µM | > 1000 µM | > 1000 µM | – | – | – | – |
| CC(Oc1ccc(Cl)cc1Cl)C(=O)NN=C1C(=O)Nc2ccc(Br)cc21 (centres unmarked) [(I)9, 3-[2-(2,4-dichlorophenoxy)propanoylhydrazono]-5-bromo-1,3-dihydroindol-2-one] | 85 µM | 30 µM | > 1000 µM | – | – | – | – |
| COc1ccc(CC(=O)N/N=C2\C(=O)Nc3ccc(Br)cc32)cc1OC [(I)10, 3-[(3,4-dimethoxyphenyl)acetylhydrazono]-5-bromo-1,3-dihydroindol-2-one] | 320 µM | 90 µM | > 1000 µM | – | – | – | – |
| O=C(Nc1cccc([N+](=O)[O-])c1)c1ccc2c(c1)C(=O)OC2=O [(II)1, 5-[N-(3-nitrophenyl)carbamoyl]-1,3-isobenzofurandione] | – | – | – | 300 µM | > 1000 µM | > 1000 µM | – |
| CC(=O)Nc1ccc(NC(=O)c2ccc3c(c2)C(=O)OC3=O)cc1 [(II)2, 5-[N-(4-acetamidophenyl)carbamoyl]-1,3-isobenzofurandione] | – | – | – | 140 µM | > 1000 µM | > 1000 µM | – |
| O=C(Nc1ccc(Cl)c(Cl)c1)c1ccc2c(c1)C(=O)OC2=O [(II)3, 5-[N-(3,4-dichlorophenyl)carbamoyl]-1,3-isobenzofurandione] | – | – | – | – | 30 µM | > 1000 µM | 50 µM |
| COc1ccc([N+](=O)[O-])cc1NC(=O)c1ccc2c(c1)C(=O)OC2=O [(II)4, 5-[N-(2-methoxy-5-nitrophenyl)carbamoyl]-1,3-isobenzofurandione] | – | – | – | 70 µM | 500 µM | > 1000 µM | – |
| O=C(Nc1ccc(Cl)cc1Cl)c1ccc2c(c1)C(=O)OC2=O [(II)5, 5-[N-(2,4-dichlorophenyl)carbamoyl]-1,3-isobenzofurandione] | – | – | – | 80 µM | 200 µM | > 1000 µM | – |
| COc1ccc(Cl)cc1NC(=O)c1ccc2c(c1)C(=O)OC2=O [(II)6, 5-[N-(2-methoxy-5-chlorophenyl)carbamoyl]-1,3-isobenzofurandione] | – | – | – | 22 µM | 750 µM | > 1000 µM | – |
| O=C(Nc1ccc2c(c1)C(=O)OC2)c1ccc(Cl)cc1 [(II)7, 5-[N-(4-chlorophenyl)carbonylamino]-3-isobenzofuranone] | – | – | – | 380 µM | > 1000 µM | > 1000 µM | – |
| O=C1NC(=O)c2cc([N+](=O)[O-])c(SCc3ccc(Cl)cc3)cc21 [(II)8, 5-[N-(4-chlorophenyl)methylthio]-6-nitrophthalimide] | – | – | – | 425 µM | > 1000 µM | > 1000 µM | – |
